Reference: US11964979B2, “Camsylate salts of triazolopyrazine derivatives” (ABION Inc., priority 2022, dated 2024)
In brackets after ≈: the same amount, converted by molar mass. Several values for one entry are separate records, joined by “and”; a condition that tells them apart may be missing. Identical values can stand only once. Like-named read-outs stand apart in the source and are kept apart here.

How the values were obtained:
[1] = 40° C./75% RH
Description: Subsequently, all the solids were exposed to accelerated aging conditions (AAC) at 40° C./75% RH for 48 hours and re-measured by HT-XRPD to test their physical stability.

[2] = Approximate solubility determination by adding aliquots of solvent; assay type: physicochemical; conditions: thermodynamic from solid
Description: The approximate solubility was determined by adding small aliquots of solvent (50 μL up to 1 mL, 100 μL above 1 mL) to the solid starting material until complete dissolution was observed or a maximum volume of 4 mL was reached. Afterwards the solvents were evaporated and obtained solids were analyzed by HT-XRPD.

[3] = Thermal stability study in solution (LCMS); assay type: physicochemical; conditions: for Area % (LCMS): approx. 0.3 mg/mL
Description: A thermal stability study was performed on ABN-401 to investigate the chemical stability of the starting material in solution when exposed to elevated temperatures. Solutions of ABN-401 were prepared in acetone, 1,2-dimethoxyethane, and acetonitrile with a concentration of approximately 0.3 mg/mL. Solutions were left at RT for 1 hour and successively, two aliquots of each solution were taken and heated at 50° C. and 80° C. for one hour. All these solutions were analyzed by LCMS. Additionally, the samples kept at RT were remeasured by LCMS after 24 hours to check the chemical degradation over time.
Starting material characterization and purity assessment of the novel crystalline forms of the free base: • Method name: S19061_03.M • Sample: • Concentration: 0.3 mg/ml • Diluent: Acetonitrile

[4] = Physical and chemical stability study up to 2 years (XRPD, TGMS, HPLC)
[5] = DVS analysis (hygroscopicity); assay type: physicochemical
Description: Differences in hygroscopicity (moisture uptake) of the various forms of a solid material provided a measure of their relative stability at increasing relative humidity. Moisture sorption isotherms of small samples were obtained using a DVS-1 system from Surface Measurement Systems (London, UK); this instrument is suitable for use with as little as a few milligrams of sample, with an accuracy of 0.1 μg. The relative humidity was varied during sorption-desorption-sorption (40-95-0-40% RH) at a constant temperature of 25° C., typically with a hold time of 60 minutes per step (10% relative humidity step). At the end of the DVS experiment the sample was measured by XRPD.
The hygroscopicity was classified according to the European Pharmacopoeia Hygroscopicity classification.

CC1(C)[C@@H]2CC[C@]1(CS(=O)(=O)O)C(=O)C2.CN1CCN(Cc2ccc(-c3cnc(N4CCO[C@H](Cn5nnc6ncc(-c7cnn(C)c7)nc65)C4)nc3)cc2)CC1 [Camp5]
Form after AAC ([1]; Exp. ID GEN21, THF): Camp2

CC1(C)[C@@H]2CC[C@]1(CS(=O)(=O)O)C(=O)C2.CN1CCN(Cc2ccc(-c3cnc(N4CCO[C@H](Cn5nnc6ncc(-c7cnn(C)c7)nc65)C4)nc3)cc2)CC1 [Camp1]
Form after AAC ([1]; Exp. ID SSm14, Acetone, API:CI 1:1): Camp1
Form after AAC ([1]; Exp. ID SSm37, 1,2-Dimethoxyethane, API:CI 1:1): Camp1

CC1(C)[C@@H]2CC[C@]1(CS(=O)(=O)O)C(=O)C2.CN1CCN(Cc2ccc(-c3cnc(N4CCO[C@H](Cn5nnc6ncc(-c7cnn(C)c7)nc65)C4)nc3)cc2)CC1 [Camp4]
Form after AAC ([1]; Exp. ID GEN16, Chloroform): Camp4
Form after AAC ([1]; Exp. ID GEN19, Heptane): Camp4
Form after AAC ([1]; Exp. ID GEN23, IPA/Water (97/3), lc = low crystalline): lc
Form after AAC ([1]; Exp. ID GEN25, 1,4-Dioxane/Water (96/4)): Camp4
Form after AAC ([1]; Exp. ID GEN26, THF/Water (95/5)): Camp4

CN1CCN(Cc2ccc(-c3cnc(N4CCOC(Cn5nnc6ncc(-c7cnn(C)c7)nc65)C4)nc3)cc2)CC1 (stereo not shown) [ABN-401]
solubility ([2]; organic solvent or mixture, 1,2-Dimethoxyethane (SAS6)): 12.7 to 13.8 mg/mL (≈ 22.4 to 24.4 mM)
solubility ([2]; organic solvent or mixture, 1,4-Dioxane (SAS4)): > 199 mg/mL
solubility ([2]; organic solvent or mixture, Acetone (SAS1)): 22.1 to 25.6 mg/mL (≈ 39 to 45.2 mM)
solubility ([2]; organic solvent or mixture, Chloroform (SAS3)): > 311 mg/mL
solubility ([2]; organic solvent or mixture, Ethyl acetate (SAS5)): 4.4 to 4.6 mg/mL (≈ 7.76 to 8.12 mM)
solubility ([2]; organic solvent or mixture, Isopropanol (SAS7)): < 2.7 mg/mL
solubility ([2]; organic solvent or mixture, Methanol (SAS8)): < 2.9 mg/mL
solubility ([2]; organic solvent or mixture, Tetrahydrofuran (SAS9)): > 181 mg/mL
solubility ([2]; Water (SAS10)): < 3.1 mg/mL
Area % (LCMS) ([3]; 1,2-dimethoxyethane solution, 1 h/50° C.): 98.6%
Area % (LCMS) ([3]; 1,2-dimethoxyethane solution, 1 h/80° C.): 97.7%
Area % (LCMS) ([3]; 1,2-dimethoxyethane solution, 1 h/RT): 99.0%
Area % (LCMS) ([3]; 1,2-dimethoxyethane solution, 24 h/RT): 98.8%
Area % (LCMS) ([3]; ACN solution, 1 h/50° C.): 99.0%
Area % (LCMS) ([3]; ACN solution, 1 h/80° C.): 98.7%
Area % (LCMS) ([3]; ACN solution, 1 h/RT): 99.0%
Area % (LCMS) ([3]; ACN solution, 24 h/RT): 98.1%
Area % (LCMS) ([3]; Acetone solution, 1 h/50° C.): 99.0%
Area % (LCMS) ([3]; Acetone solution, 1 h/80° C.): 99.0%
Area % (LCMS) ([3]; Acetone solution, 1 h/RT): 98.8%
Area % (LCMS) ([3]; Acetone solution, 24 h/RT): 98.5%
Chemical degradation in solution ([3]; samples kept at 50° C. and 80° C. for one hour, acetone, 1,2-dimethoxyethane, acetonitrile): No significant chemical degradation was observed
Chemical degradation (LCMS) ([4]; 24 months at 25° C./60% RH and at 40° C./75% RH): chemical degradation is occurring at both conditions
Mass loss attributed to water (TGA/TGMS) ([4]; 25° C./60% RH for 1 month): 3.7%
Mass loss attributed to water (TGA/TGMS) ([4]; 25° C./60% RH for 3 months): 4.1%
Mass loss attributed to water (TGA/TGMS) ([4]; 25° C./60% RH for 15 months): 3.3%
API chemical purity (area %) ([4]; 25° C./60% RH for 24 months): 87.2%
Mass loss attributed to water (TGA/TGMS) ([4]; 25° C./60% RH for 24 months): 5.3%
Mass loss attributed to water (TGA/TGMS) ([4]; 40° C./75% RH for 1 month): 4.0%
Mass loss attributed to water (TGA/TGMS) ([4]; 40° C./75% RH for 3 months): 4.4%
Mass loss attributed to water (TGA/TGMS) ([4]; 40° C./75% RH for 15 months): 3.7%
API chemical purity (area %) ([4]; 40° C./75% RH for 24 months): 90.7%
Mass loss attributed to water (TGA/TGMS) ([4]; 40° C./75% RH for 24 months): 5.2%

CC1(C)[C@@H]2CC[C@]1(CS(=O)(=O)O)C(=O)C2.CN1CCN(Cc2ccc(-c3cnc(N4CCO[C@H](Cn5nnc6ncc(-c7cnn(C)c7)nc65)C4)nc3)cc2)CC1 (stereo in doubt) [Camp2]
Form identified by HT-XRPD in the solid recovered after DVS [5]: Camp4
Change in mass at 80% RH ([5]; 25° C.): 1.4%
Hygroscopicity (European Pharmacopeia Hygroscopicity classification) ([5]; based on change in mass at 80% RH): slightly hygroscopic
Water vapor uptake ([5]; first sorption half-cycle, at 95% RH, 25° C.): 15.6%
Change in mass ([5]; first sorption half-cycle, range 40→95% RH, 25° C.): 14.1%
Change in mass ([5]; last sorption half-cycle, range 0→40% RH, 25° C.): 6.6%
Reversibility of water uptake ([5]; sorption-desorption-sorption 40-95-0-40% RH): irreversible
Form after AAC ([1]; Exp. ID GEN17, Ethanol): Camp2
Form after AAC ([1]; Exp. ID SSm60, ACN, API:CI 1:1): Camp2
API chemical purity (area %) ([4]; 25° C./60% RH for 1 month): 99.8%
Mass loss attributed to water (TGA/TGMS) ([4]; 25° C./60% RH for 1 month): 1.6%
Solid form by HT-XRPD after exposure ([4]; 25° C./60% RH for 1 month (GEN50)): Camp2
API chemical purity (area %) ([4]; 25° C./60% RH for 3 months): 99.7%
Mass loss attributed to water (TGA/TGMS) ([4]; 25° C./60% RH for 3 months): 1.6%
Solid form by HT-XRPD after exposure ([4]; 25° C./60% RH for 3 months (GEN51)): Camp2
API chemical purity (area %) ([4]; 25° C./60% RH for 15 months): 99.5% and 97.3%
Mass loss attributed to water (TGA/TGMS) ([4]; 25° C./60% RH for 15 months): 1.6%
Solid form by HT-XRPD after exposure ([4]; 25° C./60% RH for 15 months (GEN52)): Camp2
API chemical purity (area %) ([4]; 25° C./60% RH for 24 months): 100%
Mass loss attributed to water (TGA/TGMS) ([4]; 25° C./60% RH for 24 months): 1.9%
Solid form by HT-XRPD after exposure ([4]; 25° C./60% RH for 24 months (GEN53)): Camp2
Solid form conversion (HT-XRPD) ([4]; 25° C./60% RH up to 24 months): no solid form conversion occurred
Solid form conversion (HT-XRPD) ([4]; 40° C./75% RH): solid form conversions were observed after 3 months
API chemical purity (area %) ([4]; 40° C./75% RH for 1 month): 99.8%
Mass loss attributed to water (TGA/TGMS) ([4]; 40° C./75% RH for 1 month): 1.8%
Solid form by HT-XRPD after exposure ([4]; 40° C./75% RH for 1 month (GEN54)): Camp2
API chemical purity (area %) ([4]; 40° C./75% RH for 3 months): 99.3%
Mass loss attributed to water (TGA/TGMS) ([4]; 40° C./75% RH for 3 months): 7.1%
Solid form by HT-XRPD after exposure ([4]; 40° C./75% RH for 3 months (GEN55)): Camp4
API chemical purity (area %) ([4]; 40° C./75% RH for 15 months): 93.7%
Mass loss attributed to water (TGA/TGMS) ([4]; 40° C./75% RH for 15 months): 6.9%
Solid form by HT-XRPD after exposure ([4]; 40° C./75% RH for 15 months (GEN56)): Camp4
API chemical purity (area %) ([4]; 40° C./75% RH for 24 months): 88.6%
Mass loss attributed to water (TGA/TGMS) ([4]; 40° C./75% RH for 24 months): 6.7%
Solid form by HT-XRPD after exposure ([4]; 40° C./75% RH for 24 months (GEN57), E = Form E of the free base): Camp3+E
